The test concerns HCV pseudotype (HIV core proteins, HCV E1 and E2 of strain H77). As to conditions: for Percent inhibition: 25 μM; for Inhibition of HCV pseudotype infectivity (in words): summary of Tables 7 and 8.
[1] abbreviates: HCV J4 1b E2 peptides at ~25 μM, Table 8, controls as in Table 7.
[2] abbreviates: HCV H77 1a E2 peptides at ~25 μM, Table 7, virus alone 448,123.

Where two headings read alike, the source gives them in different places. Ends that are not written are not given here. Peptide text beside a SMILES is read from it.

On to “DYPYRLWHYPCTLNFSIF [compound 108, DYPYRLWHYPCTLNFSIF]”, for which the Percent inhibition came out at 90.9% and the “Inhibition of HCV pseudotype infectivity (in words)” value (“Inhibition … (in words)” for short) is reported as “inhibitory”. In addition, the Luciferase units under setting [1] is listed as 40,853 luciferase units (lumens).

On to FYAHKFNSSGCPERMASC [compound 86], for which the Percent inhibition turned out to be 11.2%. Further, the Luciferase units under setting [1] is given as 398,110 luciferase units (lumens).

Regarding `CC[C@H](C)[C@H](NC(=O)[C@@H](NC(=O)[C@H](CC(C)C)NC(=O)[C@H](CC(N)=O)NC(=O)[C@H](CCC(=O)O)NC(=O)[C@H](CC(C)C)NC(=O)[C@H](C)NC(=O)[C@H](C)NC(=O)[C@H](CCC(=O)O)NC(=O)[C@H](C)NC(=O)[C@H](CCC(N)=O)NC(=O)[C@H](CO)NC(=O)[C@@H](NC(=O)[C@H](CC(C)C)NC(=O)[C@H](CC(C)C)NC(=O)[C@H](CCSC)NC(=O)[C@H](CCSC)NC(=O)[C@@H](N)Cc1c[nH]c2ccccc12)[C@@H](C)CC)C(C)C)C(=O)O` [compound 50, WMMLLISQAEAALENLVI], the Percent inhibition is reported as 87.9%. For the same compound, the Luciferase units under setting [2] is recorded as 58,790 luciferase units (lumens).

For the compound “QNIVDVQYLYGVGSSIAS [compound 44, QNIVDVQYLYGVGSSIAS]”, the Percent inhibition was found to be 79.6% and the “Inhibition … (in words)” value is listed as “inhibitory”. Moreover, the Luciferase units under setting [2] is given as 91,266 luciferase units (lumens).

For the compound SSGCPERLASCRRLTDFA [compound 10], the Percent inhibition turned out to be 25.4%. Further, under setting [2], the Luciferase units was 334,196 luciferase units (lumens).

As for ARVCACLWMMLLIAQAEA [compound 121], the Percent inhibition worked out at 24.5%. The Luciferase units under setting [1] is listed as 338,200 luciferase units (lumens).

On to “INTNGSWHINSTALNCNE [peptide 6, INTNGSWHINSTALNCNE]”, for which the Percent inhibition is −12.3%. In addition, under setting [2], the Luciferase units is 503,446 luciferase units (lumens).

Turning to “MASCRPIDWFAQGWGPIT [compound 88, MASCRPIDWFAQGWGPIT]”, the Percent inhibition is 7.9%. Also, the Luciferase units under setting [1] is given as 412,776 luciferase units (lumens).

With “LLSTTQWQVLPCSFTTLP [compound 40, LLSTTQWQVLPCSFTTLP]”, the Percent inhibition came to 1.3%. Further, the Luciferase units under setting [2] is listed as 442,346 luciferase units (lumens).

For the compound “TDRSGVPTYSWGENETDV [compound 96, TDRSGVPTYSWGENETDV]”, the Percent inhibition is given as −21.5%. The Luciferase units under setting [1] is reported as 544,596 luciferase units (lumens).

Take `CC(C)[C@H](NC(=O)[C@@H](NC(=O)[C@@H]1CCCN1C(=O)[C@H](CO)NC(=O)[C@@H]1CCCN1C(=O)[C@@H](NC(=O)[C@H](Cc1ccccc1)NC(=O)[C@H](CS)NC(=O)[C@H](Cc1ccc(O)cc1)NC(=O)[C@@H](NC(=O)[C@@H]1CCCN1C(=O)CNC(=O)[C@H](CS)NC(=O)[C@@H](NC(=O)[C@H](CO)NC(=O)[C@H](CCCCN)NC(=O)[C@H](C)NC(=O)[C@@H]1CCCN1)C(C)C)C(C)C)[C@@H](C)O)C(C)C)C(=O)O` [compound 17, PAKSVCGPVYCFTPSPVV] (H-PAKSVCGPVYCFTPSPVV-OH; N-terminus and C-terminus assumed): the Percent inhibition came to 43.2%. Besides, under setting [2], the Luciferase units is 254,516 luciferase units (lumens).

“SPVVVGTTDRSGAPTYSW [compound 19, SPVVVGTTDRSGAPTYSW]”: the Percent inhibition was found to be 32.7%. Also, the Luciferase units under setting [2] is 301,406 luciferase units (lumens).

In the case of “TGFFAALFYAHKFNSSGC [compound 51, TGFFAALFYAHKFNSSGC]”, the Percent inhibition was 47.1%. In addition, under setting [1], the Luciferase units is 237,086 luciferase units (lumens).

On to `CC[C@H](C)[C@H](NC(=O)[C@@H](N)Cc1c[nH]cn1)C(=O)N[C@@H](CC(N)=O)C(=O)N[C@@H](CCCNC(=N)N)C(=O)N[C@H](C(=O)N[C@@H](C)C(=O)N[C@@H](CC(C)C)C(=O)N[C@@H](CC(N)=O)C(=O)N[C@@H](CS)C(=O)N[C@@H](CC(N)=O)C(=O)N[C@@H](CC(=O)O)C(=O)N[C@@H](CO)C(=O)N[C@@H](CC(C)C)C(=O)N[C@@H](CCC(N)=O)C(=O)N[C@H](C(=O)NCC(=O)N[C@@H](Cc1ccccc1)C(=O)N[C@@H](Cc1ccccc1)C(=O)O)[C@@H](C)O)[C@@H](C)O` [compound 84, HINRTALNCNDSLQTGFF], for which the Percent inhibition is on record as 12.5%. Under setting [1], the Luciferase units is 392,023 luciferase units (lumens).

Regarding WMNSTGFTKTCGGPPCNI [compound 100], the Percent inhibition is given as −15.6%. For the same compound, the Luciferase units under setting [1] is given as 518,190 luciferase units (lumens).

With KCGSGPWLTPRCLVDYPY [compound 106], the Percent inhibition is 60.4%. Also, under setting [1], the Luciferase units is recorded as 193,533 luciferase units (lumens).

Consider `CC[C@H](C)[C@H](NC(=O)[C@H](CCC(N)=O)NC(=O)[C@H](Cc1c[nH]c2ccccc12)NC(=O)[C@H](CCC(=O)O)NC(=O)[C@@H](NC(=O)[C@@H](NC(=O)[C@H](CO)NC(=O)[C@H](CC(C)C)NC(=O)[C@H](CC(C)C)NC(=O)[C@H](CC(C)C)NC(=O)[C@@H]1CCCN1C(=O)[C@H](CO)NC(=O)[C@H](CC(C)C)NC(=O)[C@H](CCC(=O)O)NC(=O)[C@H](CO)NC(=O)[C@@H](N)CCCNC(=N)N)[C@@H](C)O)[C@@H](C)O)C(=O)N[C@@H](CC(C)C)C(=O)N1CCC[C@H]1C(=O)O` [compound 114, RSELSPLLLSTTEWQILP], for which the Percent inhibition was found to be 39.7%. In addition, the Luciferase units under setting [1] is 270,190 luciferase units (lumens).

As for `CC(C)C[C@H](NC(=O)[C@H](CCC(=O)O)NC(=O)[C@H](CO)NC(=O)[C@H](CCCNC(=N)N)NC(=O)[C@H](CC(=O)O)NC(=O)[C@H](CCCNC(=N)N)NC(=O)[C@H](CC(=O)O)NC(=O)[C@H](CCC(=O)O)NC(=O)[C@H](CC(C)C)NC(=O)[C@H](CC(N)=O)NC(=O)[C@H](CS)NC(=O)[C@H](CCCNC(=N)N)NC(=O)[C@H](CCC(=O)O)NC(=O)CNC(=O)[C@H](CCCNC(=N)N)NC(=O)[C@@H](NC(=O)[C@H](Cc1c[nH]c2ccccc12)NC(=O)[C@@H](N)CC(N)=O)[C@@H](C)O)C(=O)O` [compound 112, NWTRGERCNLEDRDRSEL], the Percent inhibition was −17.8%. Also, the Luciferase units under setting [1] was 527,950 luciferase units (lumens).

For the compound GSGLDERPYCWHYPPRPC [compound 14], the Percent inhibition worked out at 37.6%. Further, under setting [2], the Luciferase units is 279,626 luciferase units (lumens).

Take “NCNESLNTGWLAGLFYQH [compound 8, NCNESLNTGWLAGLFYQH]”: the Percent inhibition turned out to be 74.6%. The Luciferase units under setting [2] is 113,650 luciferase units (lumens).

As for “DTDVFVLNNTRPPLGNWF [compound 21, DTDVFVLNNTRPPLGNWF]”, the Percent inhibition amounted to 45.9%. Further, the Luciferase units under setting [2] is 242,223 luciferase units (lumens).

ARVCSCLWMMLLISQAEA [compound 49]: the Percent inhibition is 31.4%. The Luciferase units under setting [2] is given as 307,310 luciferase units (lumens).

As to PASQVCGPVYCFTPSPVV [compound 93], the Percent inhibition turned out to be 9.7%. In addition, the Luciferase units under setting [1] is listed as 409,220 luciferase units (lumens).

As to “HYPCTLNFSIFKVRMYVG [compound 109, HYPCTLNFSIFKVRMYVG]”, the Percent inhibition came to 79.4% and the “Inhibition … (in words)” value was “inhibitory”. For the same compound, the Luciferase units under setting [1] is on record as 96,893 luciferase units (lumens).

Consider `CC[C@H](C)[C@H](NC(=O)CNC(=O)[C@H](CS)NC(=O)[C@@H]1CCCN1C(=O)[C@H](CCCNC(=N)N)NC(=O)[C@@H]1CCCN1C(=O)[C@@H]1CCCN1C(=O)[C@H](Cc1ccc(O)cc1)NC(=O)[C@H](Cc1c[nH]cn1)NC(=O)[C@H](Cc1c[nH]c2ccccc12)NC(=O)[C@H](CS)NC(=O)[C@H](Cc1ccc(O)cc1)NC(=O)[C@@H]1CCCN1)C(=O)N[C@H](C(=O)N1CCC[C@H]1C(=O)N[C@@H](C)C(=O)N[C@@H](CCCCN)C(=O)N[C@@H](CO)C(=O)O)C(C)C` [compound 15, PYCWHYPPRPCGIVPAKS] (H-PYCWHYPPRPCGIVPAKS-OH; N-terminus and C-terminus assumed), for which the Percent inhibition turned out to be 43.5%. Moreover, the Luciferase units under setting [2] is recorded as 253,410 luciferase units (lumens).

On to “PVYCFTPSPVVVGTTDRS [compound 94, PVYCFTPSPVVVGTTDRS]”, for which the Percent inhibition amounted to 30.4%. Further, the Luciferase units under setting [1] is listed as 311,736 luciferase units (lumens).

Consider “TTLPALSTGLIHLHQNIV [compound 42, TTLPALSTGLIHLHQNIV]”, for which the Percent inhibition is 19.1%. Moreover, under setting [2], the Luciferase units was 353,516 luciferase units (lumens).

With “KWEYVVLLFLLLADARVC [compound 47, KWEYVVLLFLLLADARVC]”, the Percent inhibition is listed as 56.4%. Besides, the Luciferase units under setting [2] is listed as 195,320 luciferase units (lumens).

For “HVTGGSAGRTTAGLVGLL [peptide 2, HVTGGSAGRTTAGLVGLL]”, the Percent inhibition is on record as 0.2%. Besides, the Luciferase units under setting [2] was 447,336 luciferase units (lumens).

Take “TYSWGANDTDVFVLNNTR [compound 20, TYSWGANDTDVFVLNNTR]”: the Percent inhibition worked out at 48.4%. The Luciferase units under setting [2] was 231,373 luciferase units (lumens).

Regarding GNRILICPTDCFRKHPEA [compound 103], the Percent inhibition came out at 31.8%. The Luciferase units under setting [1] was 305,690 luciferase units (lumens).

In the case of LFLLLADARVCACLWMML [compound 120], the Percent inhibition is given as −3.4%. Further, the Luciferase units under setting [1] was 463,243 luciferase units (lumens).

In the case of TKTCGGPPCNIGGVGNRT [compound 101], the Percent inhibition is −12.0%. Further, the Luciferase units under setting [1] is recorded as 502,096 luciferase units (lumens).

On to “QVLPCSFTTLPALSTGLI [compound 41, QVLPCSFTTLPALSTGLI]”, for which the Percent inhibition is on record as 3.0%. For the same compound, under setting [2], the Luciferase units is reported as 434,743 luciferase units (lumens).

As to “NWTRGERCDLEDRDRSEL [compound 37, NWTRGERCDLEDRDRSEL]”, the Percent inhibition is −30.7%. In addition, under setting [2], the Luciferase units was 585,553 luciferase units (lumens).
